Results on 7 molecules are retold here after PubChem BioAssay (NCI).

SMILES strings stand for the structures.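 Method: 48-hour compound exposure of cells in 96-well plates, five concentrations, linear interpolation of endpoints. GI50 = concentration required for 50% inhibition of growth. TGI: concentration producing complete growth inhibition.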 Bounds are passed on as bounds.

Some test systems named below: EKVX NSCLC; OVCAR-3 ovarian; T-47D breast; ACHN renal; TK-10 renal; SK-MEL-2 melanoma; HL-60(TB) leukemia; DU-145 prostate; SF-295 CNS; SR leukemia.
Common to all, as to assay: growth of human tumour cells (NCI), 48 h

`O=c1[nH]ccc2nc(-c3ccc(CN4CCC(c5nc(-c6ccccn6)n[nH]5)CC4)cc3)c(-c3ccccc3)cc12`: the GI50 is 15.8 µM in the assay on EKVX NSCLC; 0.904 µM in the assay on OVCAR-3 ovarian; 21.2 µM in the assay on ACHN renal; 3.37 µM with TK-10 renal; 14.7 µM in the assay on SK-MEL-2 melanoma; 23.6 µM with HL-60(TB) leukemia. For the same molecule, the GI50 in the assay on DU-145 prostate was 22.3 µM; in the assay on SF-295 CNS, 1.11 µM; in the assay on SR leukemia, 2.34 µM. Moreover, the TGI in the assay on EKVX NSCLC was more than 100 µM; in the assay with OVCAR-3 ovarian, more than 66.3 µM; in the assay on T-47D breast, 0.0729 µM; in the assay with ACHN renal, more than 100 µM; with TK-10 renal it was 30.4 µM; with SK-MEL-2 melanoma it was 38 µM. Besides, the TGI is more than 86.7 µM in the assay with HL-60(TB) leukemia, more than 100 µM in the assay with DU-145 prostate, 19.9 µM in the assay on SF-295 CNS and 66 µM in the assay on SR leukemia.

For the molecule `O=c1oc2ccc(F)cc2c(=O)n1-c1ccc(Cl)cc1F`, the GI50 in the assay on EKVX NSCLC was 1.61 µM; in the assay with OVCAR-3 ovarian, 0.55 µM; in the assay with T-47D breast, 0.661 µM; with ACHN renal it was 0.7 µM; in the assay with TK-10 renal, 3.73 µM; with SK-MEL-2 melanoma it was 0.42 µM. Besides, the GI50 with HL-60(TB) leukemia was 0.578 µM; with DU-145 prostate it was 1.1 µM; in the assay on SF-295 CNS, 1.82 µM; in the assay with SR leukemia, 0.619 µM. Also, the TGI came out at 8.14 µM in the assay with EKVX NSCLC; 12.5 µM with OVCAR-3 ovarian; 5.46 µM in the assay with T-47D breast; 11.8 µM with ACHN renal; 12.2 µM in the assay on TK-10 renal; 2.53 µM with SK-MEL-2 melanoma. The TGI in the assay on HL-60(TB) leukemia is 2.73 µM; in the assay on DU-145 prostate it was 22 µM; in the assay with SF-295 CNS it was 3.66 µM; in the assay with SR leukemia it was more than 39.1 µM.

With `Cc1nc(N)sc1N=Nc1cc(Cl)c([N+](=O)[O-])cc1Cl`, the TGI with EKVX NSCLC is 37.7 µM; in the assay with OVCAR-3 ovarian, 40 µM; in the assay on T-47D breast, more than 100 µM; in the assay on ACHN renal, 55.9 µM; with TK-10 renal it was 52.1 µM; with SK-MEL-2 melanoma, 60 µM. Further, the TGI in the assay on HL-60(TB) leukemia stood at 57.7 µM; in the assay with DU-145 prostate it was 32.5 µM; in the assay on SF-295 CNS it was 54.6 µM; in the assay with SR leukemia it was 26.5 µM.

On to `COc1cc(OC)c2cc(C(=O)O)c(=O)oc2c1`, for which the GI50 in the assay on EKVX NSCLC was more than 100 µM; in the assay with OVCAR-3 ovarian, more than 100 µM; in the assay with T-47D breast it was more than 100 µM; in the assay on ACHN renal it was more than 100 µM; in the assay with TK-10 renal, more than 74.5 µM; in the assay on SK-MEL-2 melanoma, more than 35.6 µM. Further, the GI50 is more than 100 µM in the assay on HL-60(TB) leukemia, more than 100 µM in the assay with DU-145 prostate, 42.2 µM with SF-295 CNS and more than 100 µM with SR leukemia. The TGI was more than 100 µM in the assay on EKVX NSCLC; more than 100 µM in the assay with OVCAR-3 ovarian; more than 100 µM in the assay on T-47D breast; more than 100 µM with ACHN renal; more than 100 µM in the assay on TK-10 renal; more than 53.8 µM in the assay with SK-MEL-2 melanoma. Moreover, the TGI in the assay on HL-60(TB) leukemia, in the assay on DU-145 prostate, in the assay with SF-295 CNS and in the assay on SR leukemia was more than 100 µM in each case.

Take `COc1cc(Nc2ncc3c(C)nc(-c4cccc(Oc5ccccc5)c4)n3n2)cc(OC)c1OC`: the GI50 with EKVX NSCLC is 11.2 µM; with OVCAR-3 ovarian, 4.64 µM; in the assay on T-47D breast, 4.51 µM; in the assay on ACHN renal, 1.33 µM; with TK-10 renal it was 3.52 µM; in the assay with SK-MEL-2 melanoma it was 2.58 µM. The GI50 with HL-60(TB) leukemia was 6.01 µM; in the assay with DU-145 prostate, 3.05 µM; in the assay with SF-295 CNS it was 7.2 µM; with SR leukemia it was 5.99 µM. In addition, the TGI with EKVX NSCLC is more than 25 µM; with OVCAR-3 ovarian it was 11.2 µM; in the assay on T-47D breast, 17.2 µM; in the assay on ACHN renal it was 17.9 µM; in the assay with TK-10 renal it was more than 20.6 µM; in the assay on SK-MEL-2 melanoma it was 9.71 µM. In addition, the TGI with HL-60(TB) leukemia was 14.1 µM; in the assay on DU-145 prostate it was more than 25 µM; in the assay on SF-295 CNS, more than 25 µM; with SR leukemia, more than 21.4 µM.

Regarding `Cc1cc(O)ccc1O`, the GI50 with EKVX NSCLC was 36.9 µM; with OVCAR-3 ovarian, 14.1 µM; with T-47D breast it was 18.2 µM; in the assay on ACHN renal it was 15.7 µM; in the assay on TK-10 renal it was 19.5 µM; in the assay on SK-MEL-2 melanoma it was more than 100 µM. For the same molecule, the GI50 is 2.64 µM in the assay on HL-60(TB) leukemia, 17.4 µM with DU-145 prostate, 34.9 µM in the assay with SF-295 CNS and 19.4 µM with SR leukemia. The TGI in the assay on EKVX NSCLC is more than 100 µM; in the assay on OVCAR-3 ovarian, 27.9 µM; in the assay with T-47D breast, 60.8 µM; in the assay on ACHN renal, 29.1 µM; with TK-10 renal, 35 µM; in the assay with SK-MEL-2 melanoma, more than 100 µM. Besides, the TGI in the assay on HL-60(TB) leukemia is 7.43 µM; in the assay with DU-145 prostate it was 31.6 µM; with SF-295 CNS, more than 100 µM; with SR leukemia, 76.6 µM.

Take `CC1CC(C)/C(=N/NC(N)=O)C(C(O)CC2CCC(=O)NC2=O)C1` (centres undefined): the GI50 is 2.3 µM in the assay on EKVX NSCLC; 5.54 µM with OVCAR-3 ovarian; 4.41 µM with T-47D breast; 1.32 µM with ACHN renal; 1.64 µM with TK-10 renal; 2.2 µM in the assay on SK-MEL-2 melanoma. Further, the GI50 is 5.6 µM in the assay on HL-60(TB) leukemia, 3.78 µM in the assay with DU-145 prostate, 1.68 µM in the assay with SF-295 CNS and 8.1 µM in the assay on SR leukemia. The TGI in the assay on EKVX NSCLC was 22.6 µM; in the assay with OVCAR-3 ovarian, 48.1 µM; in the assay on T-47D breast it was more than 100 µM; in the assay with ACHN renal it was more than 100 µM; with TK-10 renal it was 10.2 µM; with SK-MEL-2 melanoma, 12.3 µM. Besides, the TGI in the assay with HL-60(TB) leukemia was more than 100 µM; in the assay on DU-145 prostate, 52.6 µM; in the assay on SF-295 CNS it was 13.5 µM; in the assay on SR leukemia it was more than 100 µM.
